From patent US20240393292A1, “ALLERGY ANTIGEN AND EPITOPE THEREOF” (HOYU CO., LTD., priority 2019, published 2024)
Values belong to the substance of their own block, whether it stands above or below them.

How the values were obtained:
[1] = test system: IgE antibody present in the serum of a wheat-allergic patient; experiment: Wheat epitope mapping (1): peptide array of overlapping 15-amino-acid peptides, chemiluminescence; type: binding, human; conditions: bound = chemiluminescence value minus N2nd value of 5 non-wheat-allergic subjects at least 35,000; serum of 49 patients
Method: Epitope mapping was carried out using a library of overlapping peptides (length: 15 amino acids) corresponding to the amino acid sequences identified as allergy components of wheat. Specifically, the library of overlapping peptides was prepared on the basis of the amino acid sequences of SEQ ID NOs: 2, 4, 6, 8, 10, 12, 14, 16, 18, 20, 22, 24, 26 and 28.
The peptides to be synthesized were shifted by 10 amino acids.
For preparation of peptide arrays, the Intavis CelluSpots™ technique was used. Specifically, the peptide arrays were prepared by the following procedure: (1) synthesizing peptides of interest on amino-modified cellulose disks using an automated chemical synthesis apparatus (Intavis MultiPep RS), (2) dissolving the amino-modified cellulose disks to obtain a cellulose-bound peptide solution, and (3) spotting the cellulose-bound peptides onto coated glass slides. The details of each procedure are as described below.
Peptide synthesis was carried out in incremental steps through 9-fluorenylmethoxycarbonyl (Fmoc) chemical reaction on amino-modified cellulose disks in 384-well synthesis plates. Specifically, amino acids in which a Fmoc group is bonded to an amino group were activated in a solution of N,N′-diisopropylcarbodiimide (DIC) and 1-hydroxybenzotriazole (HOBt) in dimethylformamide (DMF) and added dropwise to the cellulose disks so that the Fmoc group-bound amino acids were bound to the amino groups on the cellulose disks (coupling). Unreacted amino groups were capped with acetic anhydride and washed with DMF. Furthermore, the Fmoc groups were eliminated from the amino groups of the amino acids bound to the amino groups on the cellulose disks by treatment with piperidine and washing with DMF. The amino acids bound to the amino groups on the cellulose disks were repetitively subjected to the coupling, the capping, and the Fmoc group elimination described above to elongate the amino terminus for peptide synthesis.
The peptides-bound cellulose disks of interest obtained above in the subsection titled “(1) Synthesis of peptide” were transferred to 96-well plates and treated with a side chain deprotection mixed solution of trifluoroacetic acid (TFA), dichloromethane, triisopropylsilane (TIPS), and water for deprotection of amino acid side chains. Then, the deprotected cellulose-bound peptides were dissolved in a mixed solution of TFA, […] acid (TFMSA), TIPS, and water and precipitated in […] methyl ether (TBME), and the precipitate was resuspended in dimethyl sulfoxide (DMSO) and mixed with a mixed solution of NaCl, sodium citrate, and water to obtain a peptide solution for slide spotting.
The peptide solution for slide spotting obtained above in the subsection titled “(2) Dissolution of amino-modified cellulose disk” was spotted onto Intavis CelluSpots™ slides using Intavis Slide Spotting Robot, and the slides were dried to prepare peptide arrays.
The presence or absence of binding, to each peptide fragment, of an IgE antibody present in the serum of a wheat-allergic patient was measured through antigen-antibody reaction using the peptide arrays. […]

[2] = test system: IgE antibodies from patients; experiment: Wheat epitope mapping (2): overlapping 10-amino-acid peptide fragments shifted by one amino acid; type: binding, human;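 on Rank of partial sequence as epitope binding to IgE antibody: key = sequence deemed particularly important within the common 15-residue sequence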;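 on epitope sequence binding to IgE antibody, rank (Key/Preferably/More preferably): key of grades: preferably = shorter partial sequence still acting as epitope; more preferably = sequence improving IgE binding; key = particularly important sequence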
Outline: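 Cellulose-bound 10-mer peptides offset by one residue were probed with patient serum IgE and detected by chemiluminescence. Secondary-antibody-only signals were subtracted per peptide. Residual binding was expressed as % of the parent overlapping peptide, scored as none (<30%), poor (30–<50%), somewhat poor (50–<70%) or retained (≥70%).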

[3] = serum of patient G1 (adult, general immediate type allergy to wheat), sequence without X
[4] = serum of patient P26 (WDEIA), sequence without X
[5] = serum of patient P52 (child, general immediate type allergy to wheat), sequence without X
[6] = serum of patient P34 (WDEIA), sequence without X
[7] = serum of patient P22 (WDEIA), partial sequence
[8] = serum of patient P34 (WDEIA), partial sequence

Epitope sequence binding to IgE antibody, rank of the sequence (Key/Preferably/More preferably) [2, 3]: Key
Substance: 2261 (LLRGIRNYRV; REGION 1..10: note = epitope) [compound 2261]

Epitope sequence binding to IgE antibody, rank of the sequence (Key/Preferably/More preferably) [2, 4]: Key
Substance: 2373 (TEIV; REGION 1..4: note = epitope) [compound 2373]

epitope sequence binding to IgE antibody, rank (Key/Preferably/More preferably) ([2]; serum of patient P22 (WDEIA)): Key
Substance: 1946 (FPGQ; REGION 1..4: note = epitope) [compound 1946]

Epitope sequence binding to IgE antibody, rank of the sequence (Key/Preferably/More preferably) ([2]; serum of patient P2 (WDEIA), sequence without X): Preferably
Substance: 2219 (IRNYRVAI; REGION 1..8: note = epitope) [compound 2219]

Epitope sequence binding to IgE antibody, rank of the sequence ([2]; serum of patient G3 (adult, general immediate type allergy to wheat), partial sequence): Preferably
Substance: 2623 (SAKPLL; REGION 1..6: note = epitope) [compound 2623]

Epitope sequence binding to IgE antibody, rank of the sequence ([2]; serum of patient P2 (WDEIA), partial sequence): Preferably
Substance: 2547 (QSTYQLVQQL; REGION 1..10: note = epitope) [compound 2547]

Epitope sequence binding to IgE antibody, rank of the sequence (Key/Preferably/More preferably) ([2]; serum of patient P24 (WDEIA), sequence without X): Preferably
Substance: 2367 (VTEIV; REGION 1..5: note = epitope) [compound 2367]

epitope sequence binding to IgE antibody, rank (Key/Preferably/More preferably) ([2]; serum of patient G5 (adult, general immediate type allergy to wheat)): Key
Substance: 1888 (TVRTLQRT; REGION 1..8: note = epitope) [compound 1888]

Epitope sequence binding to IgE antibody, rank of the sequence (Key/Preferably/More preferably) [2, 5]: Key
Substance: 2254 (NYRV; REGION 1..4: note = epitope) [compound 2254]

Epitope sequence binding to IgE antibody, rank of the sequence ([2]; serum of patient P8 (WDEIA), partial sequence): Key
Substance: 2707 (YKIGGIGT; REGION 1..8: note = epitope) [compound 2707]

Epitope sequence binding to IgE antibody, rank of the sequence (Key/Preferably/More preferably) [2, 6]: Key
Substance: 2291 (LGGIDK; REGION 1..6: note = epitope) [compound 2291]

Epitope sequence binding to IgE antibody, rank of the sequence (Key/Preferably/More preferably) ([2]; serum of patient P14 (WDEIA), sequence without X): Key
Substance: 2356 (YVTEIV; REGION 1..6: note = epitope) [compound 2356]

Epitope sequence binding to IgE antibody, rank of the sequence ([2]; serum of patient P32 (WDEIA), partial sequence): Key
Substance: 2586 (LQQSTYQL; REGION 1..8: note = epitope) [compound 2586]

epitope sequence binding to IgE antibody, rank (Key/Preferably/More preferably) ([2]; serum of patient P7 (WDEIA)): Key
Substance: 1909 (VPLVQ; REGION 1..5: note = epitope) [compound 1909]

Epitope sequence binding to IgE antibody, rank of the sequence (Key/Preferably/More preferably) ([2]; serum of patient P5 (WDEIA), sequence without X): Key
Substance: 2266 (GGIDKRV; REGION 1..7: note = epitope) [compound 2266]

Epitope sequence binding to IgE antibody, rank of the sequence [2, 7]: Preferably
Substance: 2682 (YKGPTL; REGION 1..6: note = epitope) [compound 2682]

epitope sequence binding to IgE antibody, rank (Key/Preferably/More preferably) ([2]; serum of patient P34 (WDEIA)): Key
Substance: 1967 (VPLVQQQ; REGION 1..7: note = epitope) [compound 1967]

Epitope sequence binding to IgE antibody, rank of the sequence ([2]; serum of patient P24 (WDEIA), partial sequence): Preferably
Substance: 2563 (QLVQQLCC; REGION 1..8: note = epitope) [compound 2563]

Epitope sequence binding to IgE antibody, rank of the sequence [2, 8]: Key
Substance: 2591 (QLVQQL; REGION 1..6: note = epitope) [compound 2591]

Epitope sequence binding to IgE antibody, rank of the sequence [2, 7]: Key
Substance: 2561 (LVQQL; REGION 1..5: note = epitope) [compound 2561]

Epitope sequence binding to IgE antibody, rank of the sequence [2, 8]: Preferably
Substance: 2745 (KIGGIG; REGION 1..6: note = epitope) [compound 2745]

The remaining lines, values behind:

Substance: SEQ ID NO: 562: common 15-residue epitope sequence of polypeptide (E8) (KPSQQQPLPLQQILW; REGION 1..15: note = epitope)
binding of patient-specific IgE antibodies to 15-residue peptide [1]: confirmed to bind

Substance: SEQ ID NO: 191: common 15-residue epitope sequence of polypeptide (E3) (SQQQQPFPQQQQPLL; REGION 1..15: note = epitope)
binding of patient-specific IgE antibodies to 15-residue peptide [1]: confirmed to bind

Substance: SEQ ID NO: 706: common 15-residue epitope sequence of polypeptide (E10) (VILFEETLYQSTKGG; REGION 1..15: note = epitope)
binding of patient-specific IgE antibodies to 15-residue peptide [1]: confirmed to bind

Substance: 1252 (PQQPP; REGION 1..5: note = epitope) [compound 1252]
Epitope sequence binding to IgE antibody, rank of the sequence ([2]; serum of patient P35 (WDEIA), sequence without X): Key

Substance: 1313 (NVEN; REGION 1..4: note = epitope) [compound 1313]
Epitope sequence binding to IgE antibody, rank of the sequence ([2]; serum of patient P12 (WDEIA), sequence without X): Key

Substance: 1450 (YLQPQQPISQ; REGION 1..10: note = epitope) [compound 1450]
Rank of partial sequence as epitope binding to IgE antibody ([2]; serum of patient P22 (WDEIA), sequence without X): Further preferably

Substance: 1494 (YLQPQQPISQ; REGION 1..10: note = epitope) [compound 1494]
Rank of partial sequence as epitope binding to IgE antibody ([2]; serum of patient G6 (adult, general immediate type allergy to wheat), sequence without X): Preferably

Substance: 1800 (KELEALPK; REGION 1..8: note = epitope) [compound 1800]
epitope sequence binding to IgE antibody, rank (Key/Preferably/More preferably) ([2]; serum of patient P17 (WDEIA)): Key

Substance: 1378 (QQPLPPQQQP; REGION 1..10: note = epitope) [compound 1378]
Epitope sequence binding to IgE antibody, rank of the sequence ([2]; serum of patient P9 (WDEIA), sequence without X): Preferably

Substance: 1467 (YLQPQQPIS; REGION 1..9: note = epitope) [compound 1467]
Rank of partial sequence as epitope binding to IgE antibody [2, 4]: Preferably

Substance: 1703 (EAANFT; REGION 1..6: note = epitope) [compound 1703]
Rank of partial sequence as epitope binding to IgE antibody ([2]; serum of patient P27 (WDEIA), sequence without X): Key

Substance: 1660 (YNPDK; REGION 1..5: note = epitope) [compound 1660]
Rank of partial sequence as epitope binding to IgE antibody [2, 3]: Key

Substance: 1626 (YNPD; REGION 1..4: note = epitope) [compound 1626]
Rank of partial sequence as epitope binding to IgE antibody [2, 4]: Key

Substance: 1188 (QQFPPQQ; REGION 1..7: note = epitope) [compound 1188]
Epitope sequence binding to IgE antibody, rank of the sequence ([2]; serum of patient P21 (WDEIA), sequence without X): Preferably

Substance: 1613 (YNPD; REGION 1..4: note = epitope) [compound 1613]
Rank of partial sequence as epitope binding to IgE antibody ([2]; serum of patient P15 (WDEIA), sequence without X): Key

Substance: 1639 (YNPDKV; REGION 1..6: note = epitope) [compound 1639]
Rank of partial sequence as epitope binding to IgE antibody [2, 6]: Key

Substance: 1287 (ILPRS; REGION 1..5: note = epitope) [compound 1287]
Epitope sequence binding to IgE antibody, rank of the sequence ([2]; serum of patient P50 (child, general immediate type allergy to wheat), sequence without X): Key

Substance: 1769 (KVGYNP; REGION 1..6: note = epitope) [compound 1769]
epitope sequence binding to IgE antibody, rank (Key/Preferably/More preferably) ([2]; serum of patient P35 (WDEIA)): Key

Substance: 1778 (KVGY; REGION 1..4: note = epitope) [compound 1778]
epitope sequence binding to IgE antibody, rank (Key/Preferably/More preferably) ([2]; serum of patient G2 (adult, general immediate type allergy to wheat)): Key

Substance: 1605 (AQLEAIRS; REGION 1..8: note = epitope) [compound 1605]
Rank of partial sequence as epitope binding to IgE antibody ([2]; serum of patient P10 (WDEIA), sequence without X): More preferably

Substance: 1213 (PIQQQPQPFP; REGION 1..10: note = epitope) [compound 1213]
Epitope sequence binding to IgE antibody, rank of the sequence ([2]; serum of patient P7 (WDEIA), sequence without X): Preferably

Substance: 1345 (NVEN; REGION 1..4: note = epitope) [compound 1345]
Epitope sequence binding to IgE antibody, rank of the sequence ([2]; serum of patient P33 (WDEIA), sequence without X): Key

Substance: 1633 (YNPD; REGION 1..4: note = epitope) [compound 1633]
Rank of partial sequence as epitope binding to IgE antibody ([2]; serum of patient P31 (WDEIA), sequence without X): Key

Substance: 1288 (LPRS; REGION 1..4: note = epitope) [compound 1288]
Epitope sequence binding to IgE antibody, rank of the sequence [2, 5]: Key
